According to BigSolDB 2.1:

CC(C)(C)OC(=O)N[C@@H](CC(N)=O)C(=O)O
solubility (mole fraction)
Conditions	283.15 K	288.15 K	293.15 K	298.15 K	303.15 K	308.15 K	313.15 K	318.15 K	323.15 K
in 2-butanone	0.000534	0.000543	0.000641	0.000673	0.000804	0.000879	0.00109	0.00131	0.00171
in acetone	0.000897	0.000927	0.0012	0.00139	0.00166	0.00201	0.00222	0.00253	0.00308
in acetonitrile	0.000136	0.000177	0.000195	0.000257	0.000313	0.000398	0.000499	0.000665	0.000856
in ethanol	0.00213	0.00253	0.0031	0.00375	0.00454	0.00533	0.00632	0.00776	0.0091
in isobutanol	0.000686	0.000865	0.000918	0.00106	0.0014	0.0018	0.00236	0.00324	0.00421
in isopropanol	0.00136	0.00169	0.00204	0.00252	0.00317	0.00372	0.00433	0.00528	0.00658
in methanol	0.00641	0.0073	0.00842	0.00982	0.0111	0.013	0.0153	0.0172	0.022
in n-butanol	0.000791	0.000839	0.00113	0.00131	0.00172	0.00189	0.00241	0.003	0.00377
in n-pentanol	0.000561	0.000787	0.00102	0.00154	0.00178	0.00227	0.00266	0.00302	0.00364
in n-propanol	0.00105	0.00145	0.00176	0.00195	0.0026	0.00323	0.00386	0.00498	0.00612
in sec-butanol	0.00103	0.00143	0.0017	0.00227	0.00245	0.00299	0.00406	0.00505	0.00619
in water	0.000247	0.000288	0.000359	0.000452	0.000492	0.000617	0.00076	0.000834	0.00107
